The text below walks through data of patent publication EP2857388A1, “Azoles containing sulfone” (Grünenthal GmbH, priority 2013, dated 2015).

In one assay the target is T1, human B1R (Homo sapiens, UniProt P46663).
T1 construct: expressed in transfected cells; host or cells: CHO K1 cells (Chinese Hamster Ovary), stably transfected
T1 sequence (P46663 1-353): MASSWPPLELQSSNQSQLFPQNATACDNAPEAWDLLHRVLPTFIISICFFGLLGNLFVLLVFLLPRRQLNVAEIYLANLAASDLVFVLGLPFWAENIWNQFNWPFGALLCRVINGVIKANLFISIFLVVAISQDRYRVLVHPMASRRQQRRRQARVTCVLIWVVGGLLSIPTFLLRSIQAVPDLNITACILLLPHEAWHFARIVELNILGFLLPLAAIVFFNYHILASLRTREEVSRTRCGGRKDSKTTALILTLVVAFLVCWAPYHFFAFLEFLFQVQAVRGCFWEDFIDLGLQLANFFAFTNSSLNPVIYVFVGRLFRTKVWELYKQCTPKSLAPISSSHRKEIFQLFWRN
The assay can be described thus: Functional assay at bradykinin receptor 1 (B1R): Ca2+ fluorescence (Fluo-4) in FLIPR/Novostar, antagonist mode. The format is cell-based. As to conditions: test substance 10 µM; CHO K1 cells stably transfected with human B1R gene (hB1R-Zellen); agonist Lys-Des-Arg9-Bradykinin at EC80; % inhibition relative to maximal achievable inhibition. As for the experimental part: Die agonistische bzw. antagonistische Wirkung von Substanzen kann am Bradykinin Rezeptor 1 (B1R) der Spezies Mensch und Ratte mit ektopisch exprimierenden Zelllinien (CHO K1 Zellen) und mit Hilfe eines Ca^2+-sensitiven Farbstoffs (Fluo-4) im Fluorescent Imaging Plate Reader (FLIPR) quantifiziert werden. Die Angabe in % Aktivierung wird bezogen auf das Ca^2+-Signal nach Zugabe von Lys-Des-Arg^9-Bradykinin ([…]), bzw. Des-Arg^9-Bradykinin (100 nM). Antagonisten führen zu einer Unterdrückung des Ca^2+-Einstroms nach der Zugabe des Agonisten. Angegeben werden % Inhibition im Vergleich zu der maximal erreichbaren Inhibition.
Die agonistische bzw. antagonistische Wirkung von Substanzen kann am Bradykinin Rezeptor 1 (B1R) der Spezies Mensch und Ratte mit folgendem Assay bestimmt werden. Gemäß diesem Assay wird der intrazelluläre Ca^2+-Anstieg nach Gabe eines B1 R Agonisten mit Hilfe eines Ca^2+-sensitiven Farbstoffs (Typ Fluo-4, Molecular Probes Europe BV, Leiden NL) im Fluorescent Imaging Plate Reader (FLIPR, Molecular Devices, Sunnyvale, USA) und/oder im Novostar (BMG Labtech GmbH, Offenburg, DE) quantifiziert.
Es werden Chinese Hamster Ovary Zellen (CHO K1 Zellen) verwendet, die stabil mit dem humanen B1 R-Gen (hB1R-Zellen) bzw. dem B1 R-Gen der Ratte (rB1R-Zellen) transfiziert sind. Für funktionelle Untersuchungen werden diese Zellen auf schwarze 96-Loch-Platten mit klarem Boden (BD Biosciences, Heidelberg, DE oder Greiner, Frickenhausen, DE) in einer Dichte von 20.000 - 35.000 Zellen/Loch ausplattiert. Über Nacht werden die Zellen bei 37°C und 5 % CO2 in Kulturmedium (hB1 R-Zellen: Nutrient Mixture Ham's F12, Gibco Invitrogen GmbH, Karlsruhe, Deutschland oder DMEM, Sigma-Aldrich, Taufkirchen, Deutschland; rB1R-Zellen: D-MEM/F12, Gibco Invitrogen GmbH, Karlsruhe, DE) mit 10 Vol-% FBS (Fetal bovine serum, Gibco Invitrogen GmbH, Karlsruhe, DE oder PAN Biotech GmbH, Aidenbach, DE) belassen. Am folgenden Tag werden die Zellen mit 2,13 µM Fluo-4 (Molecular Probes Europe BV, Leiden, NL) in HBSS-Puffer (Hank's buffered saline solution, Gibco Invitrogen GmbH, Karlsruhe, DE) mit 2,5 mM Probenecid (Sigma-Aldrich, Taufkirchen, DE) und 10 mM HEPES (Sigma-Aldrich, Taufkirchen, DE) für 60 min bei 37°C beladen. Anschließend werden die Platten 2 x mit HBSS-Puffer gewaschen und mit HBSS-Puffer versetzt, der zusätzlich 0,1 % BSA (bovines Serumalbumin; Sigma-Aldrich, Taufkirchen, Deutschland), 5,6 mM Glucose und 0,05 % Gelatine (Merck KGaA, Darmstadt, DE) enthält. Nach einer weiteren Inkubation von 20 Minuten bei RT werden die Platten zur Ca^2+-Messung im FLIPR oder Novostar eingesetzt. Alternativ wird mit Puffer A (15 mM HEPES, 80 mM NaCl, 5 mM KCI, 1,2 mM CaCl2, 0,7 mM MgSO4, 2g/L Glucose, 2,5 mM Probenecid) gewaschen und mit Puffer A versetzt mit 2,5 µM Fluo-4 und 0,025 % Pluronic F127 (Sigma-Aldrich, Taufkirchen, DE) beladen. Danach werden die Zellen 2 x mit Puffer A gewaschen und für 30 Minuten mit Puffer A, der zusätzlich 0,05 % BSA und 0,05 % Gelatine enthält bei RT inkubiert und danach zur Ca^2+-Messung im FLIPR oder Novostar eingesetzt.
Die Ca^2+-abhängige Fluoreszenz wird dabei vor und nach Zugabe von Substanzen gemessen (λex = 488 nm, λem = 540 nm). Die Quantifizierung erfolgt durch die Messung der höchsten Fluoreszenzintensität (FC, Fluorescence Counts) über die Zeit.
Das FLIPR-Protokoll besteht aus 2 Substanzzugaben, die im FLIPR pipettiert werden. Bei Messungen im Novostar wird nur die zweite Substanzzugabe im Gerät pipettiert. Beide Geräte messen die Fluoreszenzintensität über die Zeit. Zunächst werden Testsubstanzen (10 µM) auf die Zellen pipettiert und der intrazelluläre Ca^2+-Anstieg mit der Kontrolle (hB1 R: Lys-Des-Arg^9-Bradykinin >= 50 nM; rB1 R: Des-Arg^9-Bradykinin >= 1 µM) verglichen. Daraus ergibt sich die Angabe in % Aktivierung bezogen auf das Ca^2+-Signal nach Zugabe von Lys-Des-Arg^9-Bradykinin (>= 50 nM), bzw. Des-Arg^9-Bradykinin (>=1 µM). Nach 6-20 Minuten Inkubation werden Lys-Des-Arg^9-Bradykinin (hB1 R) bzw. […]
Take “2-[3-[[(2-Chlor-6-methyl-phenyl)sulfonyl]-methyl]-[1,2,4]oxadiazol-5-yl]-N-(4-dimethylamino-cyclohexyl)-acetamid [CC-128]”: the “% Inhibierung (human B1R) bei 10 µM” value is reported as 99%.

The same assay, now with this note: test substance 10 µM; CHO K1 cells stably transfected with human B1R gene (hB1R-Zellen); agonist Lys-Des-Arg9-Bradykinin at EC80; % inhibition relative to maximal achievable inhibition; read-out: % Inhibierung (human B1R) bei 10 µM.
As to `COc1cc(C)c(S(=O)(=O)Cc2nnc(CC(=O)NC3CCC(N4CCN(C)CC4)CC3(C)C)o2)c(C)c1` (stereo not drawn) [CC-86, N-[2,2-Dimethyl-4-(4-methyl-piperazin-1-yl)-cyclohexyl]-2-[5-[[(4-methoxy-2,6-dimethylphenyl)sulfonyl)-methyl]-[1,3,4]oxadiazol-2-yl]-acetamid], the inhibition at 10 µM amounted to 100%. Same read-out and setting: as for `COc1cc(C)c(S(=O)(=O)Cc2c(C)nn(CC(=O)NC3CCC(N4CCN(C)CC4)CC3(C)C)c2C)c(C)c1` (stereo not drawn) [CC-166, N-[2,2-D imethyl-4-(4-methyl-piperazin-1-yl)-cyclohexyl]-2-[4-[[(4-methoxy-2,6-dimethyl-phenyl)sulfonyl]-methyl]-3,5-dimethyl-1 H-pyrazol-1-yl]-acetamid], the figure is 100%; as for `COc1cc(C)c(S(=O)(=O)Cc2cc(C)n(CC(=O)NC3CCN(C(C)=O)CC3(C)C)n2)c(C)c1` (stereo not drawn) [CC-159, N-(1-Acetyl-3,3-dimethyl-piperidin-4-yl)-2-[3-[[(4-methoxy-2,6-dimethyl-phenyl)sulfonyl]-methyl]-5-methyl-1 H-pyrazol-1-yl]-acetamid], 50%; as for `Cc1cccc(Cl)c1S(=O)(=O)Cc1noc(CC(=O)N(C2CCC(N(C)C)CC2)C2CC2)n1` (stereo not drawn) [CC-108, 2-[3-[[(2-Chlor-6-methyl-phenyl)sulfonyl]-methyl]-[1,2,4]oxadiazol-5-yl]-N-cyclopropyl-N-(4-dimethylamino-cyclohexyl)-acetamid], 88%. Regarding `COc1cc(C)c(S(=O)(=O)Cc2noc(CC(=O)NC3CCC(O)CC3(C)C)n2)c(C)c1` (stereo not drawn) [SC-35, N-(4-Hydroxy-2,2-dimethyl-cyclohexyl)-2-[3-[[(4-methoxy-2,6-dimethyl-phenyl)sulfonyl]-methyl]-[1,2,4]oxadiazol-5-yl]-acetamid], the inhibition at 10 µM was 100%.

As for `COc1cc(C)c(S(=O)(=O)Cc2nc(C(=O)N3CCC(CN4CCN(C)CC4)C3)no2)c(C)c1` (stereo not drawn) [SC-88, [5-[[(4-Methoxy-2,6-dimethyl-phenyl)sulfonyl]-methyl]-[1,2,4]oxadiazol-3-yl]-[3-[(4-methyl-piperazin-1-yl)-methyl]-pyrrolidin-1-yl]-methanon], the inhibition at 10 µM came to 100%. On the same count and under the same terms, the value for `Cc1cc(S(=O)(=O)Cc2noc(C(=O)N(C)CCC3CCN(c4ccncc4)CC3)n2)c(C)cc1Cl` [CC-16, 3-[[(4-Chlor-2,5-dimethyl-phenyl)sulfonyl]-methyl]-N-methyl-N-[2-(1-pyridin-4-yl-piperidin-4-yl)-ethyl]-[1,2,4]oxadiazol-5-carbonsäure amid] was 100%; that for `COc1cc(C)c(S(=O)(=O)Cc2noc(CC(=O)N(C)[C@H]3CCC[C@@H](N4CCN(C)CC4)C3)n2)c(C)c1` [SC-44, 2-[3-[[(4-Methoxy-2,6-dimethyl-phenyl)sulfonyl]-methyl]-[1,2,4]oxadiazol-5-yl]-N-methyl-N-[(1S,3R)-3-(4-methyl-piperazin-1-yl)-cyclohexyl]-acetamid] was 100%; that for `COc1cc(C)c(S(=O)(=O)Cc2cn(CC(=O)N(C)C3CCNCC3(C)C)nn2)c(C)c1` (stereo not drawn) [CC-181, N-(3,3-Dimethyl-piperidin-4-yl)-2-[4-[[(4-methoxy-2,6-dimethyl-phenyl)sulfonyl]-methyl]-1 H-[1,2,3]-triazol-1-yl]-N-methyl-acetamid] was 99%. Consider `CC1(C)CC(c2ccncc2)CCC1NC(=O)Cc1nc(CS(=O)(=O)c2cccc(Cl)c2Cl)no1` (stereo not drawn) [CC-109, 2-[3-[[(2,3-Dichlor-phenyl)sulfonyl]-methyl]-[1,2,4]oxadiazol-5-yl]-N-(2,2-dimethyl-4-pyridin-4-yl-cyclohexyl)-acetamid], for which the inhibition at 10 µM worked out at 100%.

`COc1cc(C)c(S(=O)(=O)Cc2nnc(C(=O)NC3CCNCC3(C)C)o2)c(C)c1` (stereo not drawn) [SC-87, N-(3,3-Dimethyl-piperidin-4-yl)-5-[[(4-methoxy-2,6-dimethyl-phenyl)sulfonyl]-methyl]-[1,3,4]oxadiazol-2-carbonsäure amid]: the inhibition at 10 µM was 98%. Same read-out and setting: as for `COc1cc(C)c(S(=O)(=O)Cc2cc(C)n(CC(=O)NC3CCC(N4CCCC4)CC3(C)C)n2)c(C)c1` (stereo not drawn) [CC-155, N-(2,2-Dimethyl-4-pyrrolidin-1-yl-cyclohexyl)-2-[3-[[(4-methoxy-2,6-dimethyl-phenyl)sulfonyl]-methyl]-5-methyl-1 H-pyrazol-1-yl]-acetamid], the figure is 98%; as for `COCCN1CCC(NC(=O)Cn2nc(CS(=O)(=O)c3c(C)cc(OC)cc3C)cc2C)C(C)(C)C1` (stereo not drawn) [CC-157, 2-[3-[[(4-Methoxy-2,6-dimethyl-phenyl)sulfonyl]-methyl]-5-methyl-1H-pyrazol-1-yl]-N-[1-(2-methoxy-ethyl)-3,3-dimethyl-piperidin-4-yl]-acetamid], 61%. As for `COCCN1CCC(NC(=O)Cn2cc(CS(=O)(=O)c3c(C)cc(OC)cc3C)nn2)C(C)(C)C1` (stereo not drawn) [CC-160, 2-[4-[[(4-Methoxy-2,6-dimethyl-phenyl)sulfonyl]-methyl]-1H-[1,2,3]triazol-1-yl]-N-[1-(2-methoxy-ethyl)-3,3-dimethyl-piperidin-4-yl]-acetamid], the inhibition at 10 µM worked out at 100%. Take `COc1cc(C)c(S(=O)(=O)Cc2cn(CC(=O)NC3CCNCC3)nn2)c(C)c1` [CC-182, 2-[4-[[(4-Methoxy-2,6-dimethyl-phenyl)sulfonyl]-methyl]-1H-[1,2,3]triazol-1-yl]-N-piperidin-4-yl-acetamid]: the inhibition at 10 µM is 99%. With `CN1CCN(C2CCC(NC(=O)Cc3nc(CS(=O)(=O)c4cccc(Cl)c4Cl)no3)C(C)(C)C2)CC1` (stereo not drawn) [CC-48, 2-[3-[[(2,3-Dichlor-phenyl)sulfonyl]-methyl]-[1,2,4]oxadiazol-5-yl]-N-[2,2-dimethyl-4-(4-methyl-piperazin-1-yl)-cyclohexyl]-acetamid], the inhibition at 10 µM was determined as 81%. On to `COCCN1CCC(NC(=O)Cc2nc(CS(=O)(=O)c3c(C)cccc3Cl)no2)C(C)(C)C1` (stereo not drawn) [CC-94, 2-[3-[[(2-Chlor-6-methyl-phenyl)sulfonyl]-methyl]-[1,2,4]oxadiazol-5-yl]-N-[1-(2-methoxy-ethyl)-3,3-dimethyl-piperidin-4-yl]-acetamid], for which the inhibition at 10 µM was found to be 100%.
